Measurements from US9440982B2 (Eolas Therapeutics, Inc., priority 2012, dated 2016).
pIC50: −log10 of the molar value.

Experiments:
OX1 = target: T1, OX1 (Homo sapiens, UniProt O43613); test: Orexin receptor cell-based functional assay, [Ca2+]i by FLIPR, CHO-OX1 cells; conditions: CHO-OX1 cells, [Ca2+]i by FLIPR, antagonist dose-range 0.1 nM-10 μM, EC90 of OXA; read-out: OX1
T1 construct: expressed in transfected cells; host or cells: CHO (CHO-OX1, kept under selection antibiotic)
T1 sequence (O43613 1-425): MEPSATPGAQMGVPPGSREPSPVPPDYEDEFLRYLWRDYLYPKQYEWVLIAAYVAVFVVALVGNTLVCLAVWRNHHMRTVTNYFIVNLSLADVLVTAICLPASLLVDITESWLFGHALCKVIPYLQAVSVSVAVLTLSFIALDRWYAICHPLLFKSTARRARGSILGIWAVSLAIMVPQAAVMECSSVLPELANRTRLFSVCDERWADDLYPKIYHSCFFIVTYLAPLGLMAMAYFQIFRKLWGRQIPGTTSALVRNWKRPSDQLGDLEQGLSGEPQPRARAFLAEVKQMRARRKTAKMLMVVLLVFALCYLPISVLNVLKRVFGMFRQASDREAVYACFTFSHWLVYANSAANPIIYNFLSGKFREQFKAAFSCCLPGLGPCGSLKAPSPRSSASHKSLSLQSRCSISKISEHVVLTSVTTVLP
Method in brief: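 CHO cells expressing human OX1 or OX2 loaded with calcium dye plus 2.5 mM probenecid at 37° C (calcium4, 30 min, or calcium6, 2 h), then exposed to compounds (0.1 nM-10 μM) for 30 min. Intracellular Ca2+ measured on FLIPR; antagonist format.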

CYP3A4 = target: T2, CYP3A4 (Homo sapiens, UniProt P08684); test: Cytochrome P450 inhibition assay (midazolam hydroxylation); type: in vitro ADME; conditions: human, human liver microsomes, probe midazolam (hydroxylation to 1′-hydroxymidazolam), 10 μM test compound, midazolam at approximately its Km
T2 construct: pre-incubated with human liver microsomes and NADPH; from tissue; host or cells: human liver microsomes
Method in brief: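 Human liver microsomes; CYP3A4 activity as midazolam 1′-hydroxylation with substrate near Km, with or without 10 μM test compound, read as percent inhibition. For time-dependent inhibition, parallel samples were preincubated 30 min with NADPH before substrate, and percent inhibition compared with non-preincubated samples.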

T2 sequence (P08684 whole entry): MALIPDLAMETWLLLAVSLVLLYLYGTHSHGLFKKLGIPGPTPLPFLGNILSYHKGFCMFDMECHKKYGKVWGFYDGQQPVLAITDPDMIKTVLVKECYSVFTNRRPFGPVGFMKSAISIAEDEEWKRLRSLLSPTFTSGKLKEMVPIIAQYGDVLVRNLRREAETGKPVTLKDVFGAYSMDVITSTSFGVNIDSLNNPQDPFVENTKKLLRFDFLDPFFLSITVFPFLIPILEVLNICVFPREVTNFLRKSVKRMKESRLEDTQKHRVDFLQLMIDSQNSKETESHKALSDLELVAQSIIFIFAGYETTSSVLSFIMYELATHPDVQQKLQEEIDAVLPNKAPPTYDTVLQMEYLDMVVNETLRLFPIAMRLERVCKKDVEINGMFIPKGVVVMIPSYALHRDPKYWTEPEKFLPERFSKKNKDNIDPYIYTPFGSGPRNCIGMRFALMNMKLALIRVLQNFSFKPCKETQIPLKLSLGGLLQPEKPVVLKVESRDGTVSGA

| SMILES | pIC50 (OX1) | inhibition at 10 µM (CYP3A4) |
| --- | --- | --- |
| Cc1ccc(-n2nccn2)c(C(=O)N2CCC[C@@H](C)[C@H]2CNc2ccc(C(F)(F)F)cn2)c1F [Example A318, (2-Fluoro-3-methyl-6-(2H-1,2,3-triazol-2-yl)phenyl)((2S,3R)-3-methyl-2-(((5-(trifluoromethyl)pyridin-2-yl)amino)methyl)piperidin-1-yl)methanone] | 8.15 | 79% |
| Cc1ccc(-n2ncnc2C)c(C(=O)N2CCC[C@@H](C)[C@H]2CNc2ccc(C(F)(F)F)cn2)c1 [Example A16, ((2S,3R)-3-Methyl-2-(((5-(trifluoromethyl)pyridin-2-yl)amino)methyl)piperidin-1-yl)(5-methyl-2-(5-methyl-1H-1,2,4-triazol-1-yl)phenyl)methanone] | 6.59 | 96% |
| Cc1ccc(-c2ncccn2)c(C(=O)N2CCC[C@@H](C)[C@H]2CNc2nc3cc(F)ccc3o2)c1 [Example A206, ((2S,3R)-2-(((5-Fluorobenzo[d]oxazol-2-yl)amino)methyl)-3-methylpiperidin-1-yl)(5-methyl-2-(pyrimidin-2-yl)phenyl)methanone] | 8.22 | 58% |
| Cc1ccc(-n2nccn2)c(C(=O)N2CCC[C@@H](C)[C@H]2CNc2ccc(C3(C#N)CC3)cn2)c1 [Example A140, 1-(6-((((2S,3R)-3-Methyl-1-(5-methyl-2-(2H-1,2,3-triazol-2-yl)benzoyl)piperidin-2-yl)methyl)amino)pyridin-3-yl)cyclopropanecarbonitrile] | 7.89 | 64% |
| Cc1ccc(NC[C@@H]2[C@H](C)CCCN2C(=O)c2cc(C)ccc2-c2ccccn2)nc1 [Example A59, ((2S,3R)-3-Methyl-2-(((5-methylpyridin-2-yl)amino)methyl)piperidin-1-yl)(5-methyl-2-(pyridin-2-yl)phenyl)methanone] | 7.30 | 87% |
| Cc1ccc(-c2ccccn2)c(C(=O)N2CCC[C@@H](C)[C@H]2CNc2ccc(C(F)(F)F)cn2)c1 [Example A9, ((2S,3R)-3-Methyl-2-(((5-(trifluoromethyl)pyridin-2-yl)amino)methyl)piperidin-1-yl)(5-methyl-2-(pyridin-2-yl)phenyl)methanone] | 8.05 | 89% |
| Cc1ccc(-c2ccccn2)c(C(=O)N2CCC[C@@H](C)[C@H]2CNc2ncc(F)cn2)c1 [Example A179, ((2S,3R)-2-(((5-Fluoropyrimidin-2-yl)amino)methyl)-3-methylpiperidin-1-yl)(5-methyl-2-(pyridin-2-yl)phenyl)methanone] | 6.31 | 67% |
| C[C@@H]1CCCN(C(=O)c2cccc(F)c2-n2nccn2)[C@@H]1CNc1ccc(C(F)(F)F)cn1 [Example A257, (3-Fluoro-2-(2H-1,2,3-triazol-2-yl)phenyl)((2S,3R)-3-methyl-2-(((5-(trifluoromethyl)pyridin-2-yl)amino)methyl)piperidin-1-yl)methanone] | 8.40 | 69% |
| Cc1ccc(-c2ccnc(C)c2)c(C(=O)N2CCC[C@@H](C)[C@H]2CNc2nc3cc(Cl)ccc3o2)c1 [Example A37, ((2S,3R)-2-(((5-Chlorobenzo[d]oxazol-2-yl)amino)methyl)-3-methylpiperidin-1-yl)(5-methyl-2-(2-methylpyridin-4-yl)phenyl)methanone] | 8.40 | 96% |
| C[C@@H]1CCCN(C(=O)c2cc(F)ccc2-c2ncccn2)[C@@H]1CNc1ccc(Cl)cn1 [Example A229, ((2S,3R)-2-(((5-Chloropyridin-2-yl)amino)methyl)-3-methylpiperidin-1-yl)(5-fluoro-2-(pyrimidin-2-yl)phenyl)methanone] | 8.40 | 72% |
| Cc1ccc(-c2ccccn2)c(C(=O)N2CCC[C@@H](C)[C@H]2CNc2ncc(C(F)(F)F)cn2)c1 [Example A152, ((2S,3R)-3-Methyl-2-(((5-(trifluoromethyl)pyrimidin-2-yl)amino)methyl)piperidin-1-yl) (5-methyl-2-(pyridin-2-yl)phenyl)methanone] | 8.40 | 86% |
